Biological target: T1, human RXFP1 (Homo sapiens, UniProt Q9HBX9)
T1 sequence (Q9HBX9 1-757): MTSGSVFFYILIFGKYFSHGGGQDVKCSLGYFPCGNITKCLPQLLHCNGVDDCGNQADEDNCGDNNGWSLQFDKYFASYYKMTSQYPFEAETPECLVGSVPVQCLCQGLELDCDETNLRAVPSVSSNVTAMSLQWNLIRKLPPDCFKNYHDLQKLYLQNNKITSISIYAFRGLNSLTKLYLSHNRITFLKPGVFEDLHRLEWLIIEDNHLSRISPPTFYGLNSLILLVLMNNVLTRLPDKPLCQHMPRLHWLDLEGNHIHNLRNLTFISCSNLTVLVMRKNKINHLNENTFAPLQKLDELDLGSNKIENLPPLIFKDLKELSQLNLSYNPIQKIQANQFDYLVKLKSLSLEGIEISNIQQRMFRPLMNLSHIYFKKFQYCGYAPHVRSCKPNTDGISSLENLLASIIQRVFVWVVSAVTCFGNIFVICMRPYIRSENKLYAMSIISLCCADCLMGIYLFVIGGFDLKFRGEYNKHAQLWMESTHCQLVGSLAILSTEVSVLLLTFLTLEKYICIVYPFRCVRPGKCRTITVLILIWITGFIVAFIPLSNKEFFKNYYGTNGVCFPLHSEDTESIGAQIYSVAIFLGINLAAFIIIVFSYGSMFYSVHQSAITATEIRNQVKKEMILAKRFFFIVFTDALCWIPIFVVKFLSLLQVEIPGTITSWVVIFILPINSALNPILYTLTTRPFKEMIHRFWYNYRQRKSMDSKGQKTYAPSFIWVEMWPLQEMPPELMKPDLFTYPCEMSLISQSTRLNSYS
Assay: RXFP1 Hu cAMP (Test A)
Format: cell-based
Design: expressed in transfected cells; host or cells: Jump-In T-REx CHO-K1 cells (ThermoFisher), induced with 10 ng/ml doxycycline for 24 h
Settings: RXFP1 Hu cAMP; for EC50: read-out: Test A EC50
In short: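 Competitive HTRF cAMP readout (2 h, room temperature) in CHO-K1 cells stably expressing human RXFP1, induced with 10 ng/ml doxycycline for 24 h; IBMX 0.5 mM final.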

SMILES: COc1cc(-c2cc(C(=O)N[C@@H]3[C@H]4CC[C@H](C4)[C@@H]3C(=O)Nc3cccc(S(=O)(=O)C(F)(F)F)c3)c(OC)cc2F)ccc1CCC(=O)O [Example 259, 3-(2′-Fluoro-3,4′-dimethoxy-5′-(((1S,2R,3S,4R)-3-((3-((trifluoromethyl)sulfonyl)phenyl)carbamoyl)bicyclo[2.2.1]heptan-2-yl)carbamoyl)-[1,1′-biphenyl]-4-yl)propanoic acid]
- Test A Sinf: 97%
- EC50: 58 nM

SMILES: COc1cc(F)c(O[C@H]2CC[C@@](C)(C(=O)O)CC2)cc1C(=O)N[C@@H]1[C@H]2CC[C@H](C2)[C@@H]1C(=O)N[C@H](C)C(F)(F)F [Example 597]
- Test A Sinf: 106%
- EC50: 400 nM

SMILES: COc1cc(F)c(-c2cccc(C(=O)O)c2)cc1C(=O)N[C@@H]1CCC[C@@H]1C(=O)Nc1cccc(S(=O)(=O)C(F)(F)F)c1 [Example 317, 2′-Fluoro-4′-methoxy-5′-(((1R,2S)-2-((3-((trifluoromethyl)sulfonyl)phenyl)carbamoyl)cyclopentyl)carbamoyl)-[1,1′-biphenyl]-3-carboxylic acid]
- Test A Sinf: 75%
- EC50: 1200 nM

SMILES: COc1cc(F)c(-c2nc(C(=O)O)co2)cc1C(=O)N[C@H]1[C@@H](C(=O)Nc2cccc(S(=O)(=O)C(F)(F)F)c2)[C@@H]2C=C[C@H]1C2 (racemic) [Example 275, rac-2-(2-Fluoro-4-methoxy-5-(((1R,2R,3S,4S)-3-((3-((trifluoromethyl)sulfonyl)phenyl)carbamoyl)bicyclo[2.2.1]hept-5-en-2-yl)carbamoyl)phenyl)oxazole-4-carboxylic acid]
- Test A Sinf: 83%
- EC50: 11000 nM

SMILES: COc1ccc(CCC(=O)O)cc1C(=O)N[C@H]1[C@@H](C(=O)Nc2cccc(S(=O)(=O)C(F)(F)F)c2)[C@@H]2C=C[C@H]1C2 (racemic) [Example 218, rac-3-(4-Methoxy-3-(((1R,2R,3S,4S)-3-((3-((trifluoromethyl)sulfonyl)phenyl)carbamoyl)bicyclo[2.2.1]hept-5-en-2-yl)carbamoyl)phenyl)propanoic acid]
- EC50: > 40000 nM

SMILES: COc1cc(F)c(-c2ccccc2C(=O)O)cc1C(=O)N[C@H]1[C@@H](C(=O)Nc2cccc(S(=O)(=O)C(F)(F)F)c2)[C@@H]2C=C[C@H]1C2 (racemic) [Example 273, rac-2′-Fluoro-4′-methoxy-5′-(((1R,2R,3S,4S)-3-((3-((trifluoromethyl)sulfonyl)phenyl)carbamoyl)bicyclo[2.2.1]hept-5-en-2-yl)carbamoyl)-[1,1′-biphenyl]-2-carboxylic acid]
- EC50: > 40000 nM

SMILES: COc1cc(C#N)c(O[C@H]2CC[C@@](C)(C(=O)O)CC2)cc1C(=O)Nc1cc(Cl)ccc1C(=O)NCC1(F)CCC1 [Example 160]
- Test A Sinf: 125%
- EC50: 160 nM

SMILES: COc1cc(F)c(O[C@@H]2C[C@@H]3[C@H](C2)[C@H]3C(=O)O)cc1C(=O)N[C@@H]1[C@H]2CC[C@H](C2)[C@@H]1C(=O)NCC1(C)CCC1 (racemic) [Example 425, (1RS,3SR,5SR,6RS)-3-(2-Fluoro-4-methoxy-5-(((1S,2R,3S,4R)-3-(((1-methylcyclobutyl)methyl)carbamoyl)bicyclo[2.2.1]heptan-2-yl)carbamoyl)phenoxy)bicyclo[3.1.0]hexane-6-carboxylic acid]
- Test A Sinf: 78%

SMILES: COc1cc(F)c(O[C@H]2CC[C@@](CO)(C(=O)O)CC2)cc1C(=O)N[C@@H]1[C@@H]2CC[C@@H](C2)[C@@H]1C(=O)Nc1cccc(S(=O)(=O)C(F)(F)F)c1 (racemic) [Example 366]
- Test A Sinf: 103%
- EC50: 2.2 nM

SMILES: COc1cc(F)c(O[C@H]2CC[C@@](C)(C(=O)O)CC2)cc1C(=O)NC1C(O)CCC1C(=O)Nc1cccc(S(=O)(=O)C(F)(F)F)c1 (single isomer, unassigned) [Example 528, (1R,4s)-4-(2-Fluoro-5-(((1S*,2S*,5S*)-2-hydroxy-5-((3-((trifluoromethyl)sulfonyl)phenyl)carbamoyl)cyclopentyl)carbamoyl)-4-methoxyphenoxy)-1-methylcyclohexane-1-carboxylic acid]
- EC50: > 40000 nM

SMILES: COCc1cc(F)c(O[C@H]2CC[C@@](C)(C(=O)O)CC2)cc1C(=O)N[C@@H]1[C@H]2CC[C@H](C2)[C@@H]1C(=O)NCC1(C)CCC1 [Example 380]
- EC50: > 2500 nM

SMILES: COc1cc(F)c(O[C@H]2CC[C@](CC#N)(C(=O)O)CC2)cc1C(=O)N[C@@H]1[C@H]2CC[C@H](C2)[C@@H]1C(=O)NCC1(C)CCC1 [Example 423, (1R,4r)-1-(Cyanomethyl)-4-(2-fluoro-4-methoxy-5-(((1S,2R,3S,4R)-3-(((1-methylcyclobutyl)methyl)carbamoyl)bicyclo[2.2.1]heptan-2-yl)carbamoyl)phenoxy)cyclohexane-1-carboxylic acid]
- Test A Sinf: 89%

SMILES: COc1cc(F)c(O[C@H]2CC[C@@](C)(C(=O)O)CC2)cc1C(=O)NC1C(C(=O)Nc2cccc(S(=O)(=O)C(F)(F)F)c2)CC(O)C1O (single isomer, unassigned) [Example 562, (1R,4s)-4-(5-(((1S*,2R*,3S*,5S*)-2,3-Dihydroxy-5-((3-((trifluoromethyl)sulfonyl)phenyl)carbamoyl)cyclopentyl)carbamoyl)-2-fluoro-4-methoxyphenoxy)-1-methylcyclohexane-1-carboxylic acid]
- EC50: > 40000 nM

SMILES: COc1cc(F)c(O[C@H]2CC[C@@](C)(C(=O)O)CC2)cc1C(=O)N[C@@H]1[C@H]2CC[C@H](C2)[C@@H]1C(=O)N[C@@H](C)C(C)(C)C#N [Example 616]
- Test A Sinf: 101%
- EC50: 2000 nM

SMILES: COc1cc(F)c(-c2ccc(C(=O)O)c(F)c2)cc1C(=O)N[C@H]1[C@@H](C(=O)Nc2cccc(S(=O)(=O)C(F)(F)F)c2)[C@@H]2C=C[C@H]1C2 (racemic) [Example 232]
- Test A Sinf: 108%

SMILES: COc1cc(F)c(O[C@H]2CC[C@@](C)(C(=O)O)CC2)cc1C(=O)N[C@@H]1CC[C@@H]1C(=O)Nc1ccc(F)c(S(F)(F)(F)(F)F)c1 (racemic) [Example 347]
- Test A Sinf: 115%
- EC50: 6.4 nM

SMILES: COc1cc(F)c(O[C@H]2CC[C@@](C)(C(=O)O)CC2)cc1C(=O)N[C@@H]1[C@H]2CC[C@H](C2)[C@@H]1C(=O)NC(C)(C)C(F)(F)F [Example 603]
- Test A Sinf: 99%
- EC50: 94 nM

SMILES: COc1cc(F)c(-c2cnc([C@@H]3C[C@H]3C(=O)O)cn2)cc1C(=O)N[C@@H]1[C@H]2CC[C@H](C2)[C@@H]1C(=O)Nc1cccc(S(=O)(=O)C(F)(F)F)c1 (single isomer, unassigned) [Example 263, (1R*,2R*)-2-(5-(2-Fluoro-4-methoxy-5-(((1S,2R,3S,4R)-3-((3-((trifluoromethyl)sulfonyl)phenyl)carbamoyl)bicyclo[2.2.1]heptan-2-yl)carbamoyl)phenyl)pyrazin-2-yl)cyclopropane-1-carboxylic acid]
- Test A Sinf: 106%
- EC50: 84 nM

SMILES: COc1cc(F)c(-c2ccc(C(=O)O)cc2)cc1C(=O)N[C@@H]1CC[C@@H]1C(=O)Nc1cccc(S(=O)(=O)C(F)(F)F)c1 (racemic) [Example 301]
- Test A Sinf: 69%

SMILES: CC1(CNC(=O)[C@H]2[C@@H]3CC[C@@H](C3)[C@H]2NC(=O)c2cc(O[C@H]3CC[C@@](C)(C(=O)O)CC3)c(F)cc2C#N)CCC1 [Example 377]
- Test A Sinf: 100%

SMILES: COc1cc(F)c(O[C@H]2CC[C@@](C)(C(=O)O)CC2)cc1C(=O)N[C@H]1[C@@H](C(=O)NCC2(C)CCC2)[C@H]2CC[C@@H]1O2 (racemic) [Example 331, (1R,4s)-4-(2-Fluoro-4-methoxy-5-(((1SR,2SR,3RS,4RS)-3-(((1-methylcyclobutyl)methyl)carbamoyl)-7-oxabicyclo[2.2.1]heptan-2-yl)carbamoyl)phenoxy)-1-methylcyclohexane-1-carboxylic acid]
- Test A Sinf: 90%
- EC50: 260 nM

SMILES: COc1cc(C#N)c(O[C@H]2CC[C@@](C)(C(=O)O)CC2)cc1C(=O)Nc1cc(C)ccc1C(=O)N[C@H]1CC[C@H](C)CC1 [Example 169]
- Test A Sinf: 111%
- EC50: 270 nM

SMILES: COc1cc(F)c(-c2ccc(C(=O)O)cc2)cc1C(=O)N[C@H]1[C@@H](C(=O)N[C@@H]2CCCN(S(=O)(=O)C(F)(F)F)C2)[C@@H]2C=C[C@H]1C2 (racemic) [Example 312]
- Test A Sinf: 50%
- EC50: 7500 nM

SMILES: COc1cc(F)c(O[C@H]2CC[C@@](C)(C(=O)O)CC2)cc1C(=O)N[C@@H]1[C@H]2CC[C@H](C2)[C@@H]1C(=O)NC1CC(F)(F)C1 [Example 619]
- Test A Sinf: 103%
- EC50: 390 nM

SMILES: COc1ccc(Cc2ccccc2C(=O)O)cc1C(=O)N[C@H]1[C@@H](C(=O)Nc2cccc(S(=O)(=O)C(F)(F)F)c2)[C@@H]2C=C[C@H]1C2 (racemic) [Example 223, rac-2-(4-Methoxy-3-(((1R,2R,3S,4S)-3-((3-((trifluoromethyl)sulfonyl)phenyl)carbamoyl)bicyclo[2.2.1]hept-5-en-2-yl)carbamoyl)benzyl)benzoic acid]
- EC50: > 40000 nM

From patent publication US11667602B2, “Compounds and their use” (AstraZeneca AB, priority 2020, dated 2023)
